From ChEMBL document CHEMBL1136143, “Synthesis and activity of novel benzoxazole derivatives of mannopeptimycin glycopeptide antibiotics” (2003)
Values after ≈ are worked out from the molar mass of the structure shown.

Columns and labels:
Format in all cases: functional
[1] = tested on: Enterococcus sp.; assay: In vitro minimum inhibitory concentration against Enterococcus species (11 strains, including VRE)
[2] = tested on: Enterococcus faecium; assay: In vitro minimum inhibitory concentration against vancomycin-resistant Enterococcus faecium (GC 2243)
[3] = tested on: Enterococcus faecium; assay: In vitro minimum inhibitory concentration against vancomycin-resistant Enterococcus faecium (GC 4558)
[4] = tested on: Enterococcus faecium; assay: In vitro minimum inhibitory concentration against vancomycin-susceptible Enterococcus faecium (GC 4556)
[5] = tested on: Enterococcus faecium; assay: In vitro minimum inhibitory concentration against vancomycin-susceptible Enterococcus faecium (GC 4557)
[6] = tested on: Enterococcus faecalis; assay: In vitro minimum inhibitory concentration against vancomycin-susceptible Enterococcus faecalis (GC 4555)
[7] = tested on: Enterococcus faecalis; assay: In vitro minimum inhibitory concentration against vancomycin-resistant Enterococcus faecalis (GC 2242)
[8] = tested on: Enterococcus faecalis; assay: In vitro minimum inhibitory concentration against vancomycin-resistant Enterococcus faecalis (GC 3059)
[9] = tested on: Enterococcus faecalis; assay: In vitro minimum inhibitory concentration against vancomycin-resistant Enterococcus faecalis (GC 6189)
[10] = tested on: Enterococcus faecalis; assay: In vitro minimum inhibitory concentration against vancomycin-susceptible Enterococcus faecalis (GC 2691)
[11] = tested on: Enterococcus faecalis; assay: In vitro minimum inhibitory concentration against vancomycin-susceptible Enterococcus faecalis (GC 4552)
[12] = tested on: Enterococcus faecalis; assay: In vitro minimum inhibitory concentration against vancomycin-susceptible Enterococcus faecalis (GC 4553)
[13] = tested on: Micrococcus luteus; assay: In vitro minimum inhibitory concentration against Micrococcus lutea (GC 4562)
[14] = tested on: Staphylococcus aureus; assay: In vitro minimum inhibitory concentration against Staphylococcus aureus (10strains, including MRSA)
[15] = tested on: Streptococcus agalactiae; assay: In vitro minimum inhibitory concentration against Streptococcus agalactiae (GC4564)
[16] = tested on: Staphylococcus aureus; assay: In vitro minimum inhibitory concentration against Methicillin-resistant Staphylococcus aureus (GC 1131)
[17] = tested on: Staphylococcus aureus; assay: In vitro minimum inhibitory concentration against Methicillin-resistant Staphylococcus aureus (GC 2216)
[18] = tested on: Staphylococcus aureus; assay: In vitro minimum inhibitory concentration against Methicillin-resistant Staphylococcus aureus (GC 4542)
[19] = tested on: Staphylococcus aureus; assay: In vitro minimum inhibitory concentration against Methicillin-resistant Staphylococcus aureus (GC 4543)
[20] = tested on: Staphylococcus aureus; assay: In vitro minimum inhibitory concentration against Methicillin-resistant Staphylococcus aureus(GC 4541)
[21] = tested on: Staphylococcus aureus; assay: In vitro minimum inhibitory concentration against Methicillin-resistant Staphylococcus aureus(GC 4545)
[22] = tested on: Staphylococcus aureus; assay: In vitro minimum inhibitory concentration against glycopeptide tntermediate Staphylococcus aureus (GC 3051)
[23] = tested on: Staphylococcus aureus; assay: In vitro minimum inhibitory concentration against glycopeptide tntermediate Staphylococcus aureus (GC 3066)
[24] = tested on: Staphylococcus haemolyticus; assay: In vitro minimum inhibitory concentration against methicillin-resistant Coagulase-negative Staphylococci (MRCNS) (GC 4546))
[25] = tested on: Staphylococcus haemolyticus; assay: In vitro minimum inhibitory concentration against methicillin-resistant Coagulase-negative Staphylococci (MRCNS) (GC 4547))
[26] = tested on: Streptococcus pneumoniae; assay: In vitro minimum inhibitory concentration against Penicillin resistant Streptococcus pneumoniae (GC 1894)
[27] = tested on: Streptococcus pneumoniae; assay: In vitro minimum inhibitory concentration against Penicillin susceptible Streptococcus pneumoniae (GC 4565)
[28] = tested on: Streptococcus pneumoniae; assay: In vitro minimum inhibitory concentration against Penicillin susceptible Streptococcus pneumoniae (GC 6242)
[29] = tested on: Streptococcus pyogenes; assay: In vitro minimum inhibitory concentration against Streptococcus pyogenes (GC 4563)
[30] = tested on: Staphylococcus haemolyticus; assay: In vitro minimum inhibitory concentration against methicillin-susceptible Coagulase-negative Staphylococci (MSCNS) (GC 4549))
[31] = tested on: Staphylococcus haemolyticus; assay: In vitro minimum inhibitory concentration against methicillin-susceptible Coagulase-negative Staphylococci (MSCNS) (GC 4551)
[32] = tested on: Staphylococcus haemolyticus; assay: In vitro minimum inhibitory concentration against methicillin-susceptible Coagulase-negative Staphylococci (MSCNS) (GC 6257)
[33] = tested on: Streptococcus; assay: In vitro minimum inhibitory concentration against Streptococcus Species (5 strains, including PRSP)
[34] = tested on: Bacillus cereus; assay: In vitro minimum inhibitory concentration against Bacillus cereus (GC 4561) assay organism
[35] = tested on: Staphylococcus haemolyticus; assay: In vitro minimum inhibitory concentration against methicillin-resistant Coagulase-negative Staphylococci (MRCNS) (GC 4548))
[36] = tested on: Enterococcus faecalis; assay: In vitro minimum inhibitory concentration against vancomycin-susceptible Enterococcus faecalis (GC 4554)
[37] = tested on: Staphylococcus aureus; assay: In vitro minimum inhibitory concentration against Methicillin-resistant Staphylococcus aureus(GC 4544)
[38] = tested on: Staphylococcus aureus; assay: In vitro minimum inhibitory concentration against Staphylococcus aureus

SMILES	MIC [1] [µg/mL]	MIC [2] [µg/mL]	MIC [3] [µg/mL]	MIC [4] [µg/mL]	MIC [5] [µg/mL]	MIC [6] [µg/mL]	MIC [7] [µg/mL]	MIC [8] [µg/mL]	MIC [9] [µg/mL]	MIC [10] [µg/mL]	MIC [11] [µg/mL]	MIC [12] [µg/mL]	MIC [13] [µg/mL]	MIC [14] [µg/mL]	MIC [15] [µg/mL]	MIC [16] [µg/mL]	MIC [17] [µg/mL]	MIC [18] [µg/mL]	MIC [19] [µg/mL]	MIC [20] [µg/mL]	further results
C[C@@H](c1ccccc1)[C@@H]1NC(=O)CNC(=O)[C@H](CO)NC(=O)[C@@H]([C@@H](O)[C@@H]2CN=C(N)N2[C@H]2O[C@H](CO)[C@@H](O)[C@H](O)[C@@H]2O)NC(=O)[C@H]([C@H](O)[C@@H]2CN=C(N)N2)NC(=O)[C@@H](Cc2ccc3nc(SCC(=O)c4ccc(Cl)cc4)oc3c2)NC1=O	2 (≈ 1.69 µM)	8 (≈ 6.78 µM)	4 (≈ 3.39 µM)	8 (≈ 6.78 µM)	2 (≈ 1.69 µM)	16 (≈ 13.6 µM)	16 (≈ 13.6 µM)	32 (≈ 27.1 µM)	16 (≈ 13.6 µM)	16 (≈ 13.6 µM)	2 (≈ 1.69 µM)	4 (≈ 3.39 µM)	16 (≈ 13.6 µM)	2 (≈ 1.69 µM)	4 (≈ 3.39 µM)	4 (≈ 3.39 µM)	8 (≈ 6.78 µM)	4 (≈ 3.39 µM)	2 (≈ 1.69 µM)	4 (≈ 3.39 µM)	MIC [21]: 2 µg/mL (≈ 1.69 µM); MIC [22]: 4 µg/mL (≈ 3.39 µM); MIC [23]: 4 µg/mL (≈ 3.39 µM); MIC [24]: 1 µg/mL (≈ 0.847 µM); MIC [25]: 4 µg/mL (≈ 3.39 µM); MIC [26]: 8 µg/mL (≈ 6.78 µM); MIC [27]: 8 µg/mL (≈ 6.78 µM); MIC [28]: 8 µg/mL (≈ 6.78 µM); MIC [29]: 2 µg/mL (≈ 1.69 µM); MIC [30]: 1 µg/mL (≈ 0.847 µM); MIC [31]: 4 µg/mL (≈ 3.39 µM); MIC [32]: 1 µg/mL (≈ 0.847 µM); MIC [33]: 2 µg/mL (≈ 1.69 µM); MIC [34]: 1 µg/mL (≈ 0.847 µM); MIC [35]: 2 µg/mL (≈ 1.69 µM); MIC [36]: 16 µg/mL (≈ 13.6 µM); MIC [37]: 4 µg/mL (≈ 3.39 µM)
Cc1ccc(Oc2ccc(-c3nc4ccc(C[C@H]5NC(=O)[C@H]([C@@H](C)c6ccccc6)NC(=O)CNC(=O)[C@H](CO)NC(=O)[C@@H]([C@@H](O)[C@@H]6CN=C(N)N6[C@H]6O[C@H](CO)[C@@H](O)[C@H](O)[C@@H]6O)NC(=O)[C@H]([C@H](O)[C@@H]6CN=C(N)N6)NC5=O)cc4o3)cc2)cc1	4 (≈ 3.39 µM)	8 (≈ 6.79 µM)	4 (≈ 3.39 µM)	8 (≈ 6.79 µM)	4 (≈ 3.39 µM)	8 (≈ 6.79 µM)	4 (≈ 3.39 µM)	8 (≈ 6.79 µM)	8 (≈ 6.79 µM)	8 (≈ 6.79 µM)	8 (≈ 6.79 µM)	4 (≈ 3.39 µM)	1 (≈ 0.849 µM)	4 (≈ 3.39 µM)	4 (≈ 3.39 µM)	8 (≈ 6.79 µM)	8 (≈ 6.79 µM)	8 (≈ 6.79 µM)	4 (≈ 3.39 µM)	8 (≈ 6.79 µM)	MIC [21]: 4 µg/mL (≈ 3.39 µM); MIC [22]: 4 µg/mL (≈ 3.39 µM); MIC [23]: 4 µg/mL (≈ 3.39 µM); MIC [24]: 4 µg/mL (≈ 3.39 µM); MIC [25]: 8 µg/mL (≈ 6.79 µM); MIC [26]: 4 µg/mL (≈ 3.39 µM); MIC [27]: 4 µg/mL (≈ 3.39 µM); MIC [28]: 4 µg/mL (≈ 3.39 µM); MIC [29]: 1 µg/mL (≈ 0.849 µM); MIC [30]: 4 µg/mL (≈ 3.39 µM); MIC [31]: 4 µg/mL (≈ 3.39 µM); MIC [32]: 2 µg/mL (≈ 1.7 µM); MIC [33]: 1 µg/mL (≈ 0.849 µM); MIC [34]: 8 µg/mL (≈ 6.79 µM); MIC [35]: 4 µg/mL (≈ 3.39 µM); MIC [36]: 8 µg/mL (≈ 6.79 µM); MIC [37]: 8 µg/mL (≈ 6.79 µM)
C[C@@H](c1ccccc1)[C@@H]1NC(=O)CNC(=O)[C@H](CO)NC(=O)[C@@H]([C@@H](O)[C@@H]2CN=C(N)N2[C@H]2O[C@H](CO)[C@@H](O)[C@H](O)[C@@H]2O)NC(=O)[C@H]([C@H](O)[C@@H]2CN=C(N)N2)NC(=O)[C@@H](Cc2ccc(O)cc2)NC1=O	32 (≈ 33 µM)	–	–	–	–	–	–	–	–	–	–	–	–	–	–	–	–	–	–	–	MIC [38]: 64 µg/mL (≈ 65.9 µM)
